Where a SMILES comes first, the peptide text is derived from it. Bridges are numbered along the chain shown (N, C = ends). [ ]: non-standard residue; d: D form. The star is where a group is joined. Pentadecanoyl = CCCCCCCCCCCCCCC(=O)*; Tridecanoyl = CCCCCCCCCCCCC(=O)*; Undecanoyl = CCCCCCCCCCC(=O)*; dOrn = NCCC[C@@H](N)C(=O)O
Tests used:
[1] = test system: Enterobacter cloacae SBJ-9395; format: cell-based; conditions: SBJ-9395
[2] = test system: Salmonella CVM 1290 (cmy2); format: cell-based
[3] = test system: Serratia marcescens SAMN 04276914; format: cell-based; conditions: SAMN 04276914
[4] = test system: S. aureus 10; assay: microbe, parasite or virus in culture; format: cell-based, Staphylococcus aureus; conditions: 10
Description: (§1) The same MIC assay as in Example 6 was used to determine the antimicrobial susceptibility of Compound A, L-form (FIG. 15), and several variants. One variant was Compound A, D-form, with D-Lysine at position 7. Compound B is a variant in the fatty acid chain, with a fatty acid chain composition of C15H29O, and having D-Lys at position 7. Compound C is a variant in the fatty acid chain with a fatty acid chain composition of C11H21O, and having D-Lys at position 7. Variant D is a sequence variant with Phe at position 6 of the cyclic peptide, and having D-Lys at position 7. All variants were chemically synthesized.

[5] = test system: S. aureus 12; assay: microbe, parasite or virus in culture; format: cell-based, Staphylococcus aureus; conditions: 12
Description: as §1

[6] = test system: S. aureus 14; assay: microbe, parasite or virus in culture; format: cell-based, Staphylococcus aureus; conditions: 14
Description: as §1

[7] = test system: S. aureus 19; assay: microbe, parasite or virus in culture; format: cell-based, Staphylococcus aureus; conditions: 19
Description: as §1

[8] = test system: S. aureus 2; assay: microbe, parasite or virus in culture; format: cell-based, Staphylococcus aureus; conditions: 2
Description: as §1

[9] = test system: S. aureus 4; assay: microbe, parasite or virus in culture; format: cell-based, Staphylococcus aureus; conditions: 4
Description: as §1

[10] = test system: S. aureus 6; assay: microbe, parasite or virus in culture; format: cell-based, Staphylococcus aureus; conditions: 6
Description: as §1

[11] = test system: S. aureus 8; assay: microbe, parasite or virus in culture; format: cell-based, Staphylococcus aureus; conditions: 8
Description: as §1

[12] = test system: S. Bareilly CVM40145 (ACC-1); format: cell-based, Salmonella
Description: as §1

[13] = test system: S. Heidelberg CVM 40140 (cmy-2); format: cell-based, Salmonella
Description: as §1

[14] = test system: S. Keur massar CVM 40135 (shv12); format: cell-based, Salmonella
Description: as §1

[15] = test system: S. Newport CVM 40115 (cmy 2); format: cell-based, Salmonella
Description: as §1

[16] = test system: S. Typhimurium CVM 40117 (ctx-m-5); format: cell-based, Salmonella
Description: as §1

[17] = test system: carbapenem-resistant (CRE) strains and MRSA strains; assay: Broth microdilution MIC, summary of spectrum; format: cell-based
[18] = test system: E. coli ATCC 25853; conditions: ATCC 25853
[19] = test system: Salmonella Newport #17
[20] = test system: Enterobacter sakazakii E784
[21] = test system: E. coli O157: H7 EDL933
[22] = test system: Klebsiella pneumoniae SBJ-9149; conditions: SBJ-9149
[23] = test system: Enterobacter cloacae SBJ-7612; conditions: SBJ-7612
[24] = test system: Klebsiella pneumoniae SBJ-9483; conditions: SBJ-9483
[25] = test system: Klebsiella pneumoniae SBJ-9388; conditions: SBJ-9388
[26] = test system: Enterobacter cloacae SBJ-9222; conditions: SBJ-9222
[27] = test system: P. aeruginosa ATCC-27853; conditions: ATCC-27853
[28] = test system: P. aeruginosa SBJ-10884
[29] = test system: P. aeruginosa -03
[30] = test system: P. aeruginosa -02
[31] = test system: P. aeruginosa -01
[32] = test system: P. aeruginosa SBJ-10886
[33] = test system: E. faecalis ATCC 29212
[34] = test system: Listeria monocytogenes R2-583
[35] = test system: S. aureus ATCC25923
[36] = test system: S. aureus ATCC 29213

CCCCCCCCCCCCC(=O)N[C@H](CCCN)C(=O)N[C@H](C(=O)N[C@@H]1C(=O)N[C@H](CCCN)C(=O)N[C@@H](CO)C(=O)N[C@@H](Cc2ccccc2)C(=O)N[C@H](CCCCN)C(=O)N[C@H](CO)C(=O)N[C@@H]([C@@H](C)CC)C(=O)N2CCC[C@H]2C(=O)N[C@@H]([C@@H](C)CC)C(=O)N2CCC[C@H]2C(=O)N[C@@H]([C@@H](C)CC)C(=O)O[C@@H]1C)C(C)C [Variant D] (Tridecanoyl-[dOrn]VT[dOrn]SF[dK][dS]IPIPI; ester 3-C; N-terminus assumed)
8 µg/mL: MIC [2] | MIC [4] | MIC [5] | MIC [6] | MIC [7] | MIC [8] | MIC [9] | MIC [10] | MIC [11] | MIC [15] | MIC [16]
16 µg/mL: MIC [13] | MIC [14]
32 µg/mL: MIC [1] | MIC [12]
64 µg/mL: MIC [3]

CCCCCCCCCCCCC(=O)N[C@H](CCCN)C(=O)N[C@H](C(=O)N[C@@H]1C(=O)N[C@H](CCCN)C(=O)N[C@@H](CO)C(=O)N[C@@H](Cc2ccc(O)cc2)C(=O)N[C@@H](CCCCN)C(=O)N[C@H](CO)C(=O)N[C@@H]([C@@H](C)CC)C(=O)N2CCC[C@H]2C(=O)N[C@@H]([C@@H](C)CC)C(=O)N2CCC[C@H]2C(=O)N[C@@H]([C@@H](C)CC)C(=O)O[C@@H]1C)C(C)C [Compound A L-form] (Tridecanoyl-[dOrn]VT[dOrn]SYK[dS]IPIPI; ester 3-C)
much greater sensitivity: sensitivity of bacteria compared with paenibacterin of US2013/0164317 ([17]; comparison in words)
4 µg/mL: MIC [18] | MIC [21] | MIC [22] | MIC [23] | MIC [24] | MIC [25] | MIC [28] | MIC [32] | MIC [33] | MIC [36]
very potent activity: activity against CRE strains and MRSA strains ([17]; summary of Table 6)
64 µg/mL: MIC [3]
2 µg/mL: MIC [34] | MIC [35]
8 µg/mL: MIC [2] | MIC [15] | MIC [16] | MIC [20] | MIC [26] | MIC [27] | MIC [29] | MIC [30] | MIC [31]
16 µg/mL: MIC [12] | MIC [13] | MIC [14] | MIC [19]

CCCCCCCCCCCCC(=O)N[C@H](CCCN)C(=O)N[C@H](C(=O)N[C@@H]1C(=O)N[C@H](CCCN)C(=O)N[C@@H](CO)C(=O)N[C@@H](Cc2ccc(O)cc2)C(=O)N[C@H](CCCCN)C(=O)N[C@H](CO)C(=O)N[C@@H]([C@@H](C)CC)C(=O)N2CCC[C@H]2C(=O)N[C@@H]([C@@H](C)CC)C(=O)N2CCC[C@H]2C(=O)N[C@@H]([C@@H](C)CC)C(=O)O[C@@H]1C)C(C)C [Compound A D-form] (Tridecanoyl-[dOrn]VT[dOrn]SY[dK][dS]IPIPI; ester 3-C)
32 µg/mL: MIC [3]
8 µg/mL: MIC [1] | MIC [2] | MIC [4] | MIC [6] | MIC [7] | MIC [12] | MIC [15] | MIC [16]
4 µg/mL: MIC [5] | MIC [8] | MIC [9] | MIC [10] | MIC [11]
16 µg/mL: MIC [13] | MIC [14]

CCCCCCCCCCC(=O)N[C@H](CCCN)C(=O)N[C@H](C(=O)N[C@@H]1C(=O)N[C@H](CCCN)C(=O)N[C@@H](CO)C(=O)N[C@@H](Cc2ccc(O)cc2)C(=O)N[C@H](CCCCN)C(=O)N[C@H](CO)C(=O)N[C@@H]([C@@H](C)CC)C(=O)N2CCC[C@H]2C(=O)N[C@@H]([C@@H](C)CC)C(=O)N2CCC[C@H]2C(=O)N[C@@H]([C@@H](C)CC)C(=O)O[C@@H]1C)C(C)C [Compound C] (Undecanoyl-[dOrn]VT[dOrn]SY[dK][dS]IPIPI; ester 3-C; N-terminus assumed)
64 µg/mL: MIC [3]
16 µg/mL: MIC [2] | MIC [12] | MIC [13] | MIC [14] | MIC [15] | MIC [16]
8 µg/mL: MIC [1] | MIC [4] | MIC [5] | MIC [6] | MIC [7] | MIC [8] | MIC [9] | MIC [10] | MIC [11]

CCCCCCCCCCCCCCC(=O)N[C@H](CCCN)C(=O)N[C@H](C(=O)N[C@@H]1C(=O)N[C@H](CCCN)C(=O)N[C@@H](CO)C(=O)N[C@@H](Cc2ccc(O)cc2)C(=O)N[C@H](CCCCN)C(=O)N[C@H](CO)C(=O)N[C@@H]([C@@H](C)CC)C(=O)N2CCC[C@H]2C(=O)N[C@@H]([C@@H](C)CC)C(=O)N2CCC[C@H]2C(=O)N[C@@H]([C@@H](C)CC)C(=O)O[C@@H]1C)C(C)C [Compound B] (Pentadecanoyl-[dOrn]VT[dOrn]SY[dK][dS]IPIPI; ester 3-C; N-terminus assumed)
64 µg/mL: MIC [3]
16 µg/mL: MIC [1] | MIC [2] | MIC [13] | MIC [15] | MIC [16]
4 µg/mL: MIC [4] | MIC [5] | MIC [6] | MIC [7] | MIC [8] | MIC [9] | MIC [11]
8 µg/mL: MIC [10]
32 µg/mL: MIC [12] | MIC [14]

Reference: patent US10906940B2, “Antimicrobial peptides, pharmaceutical compositions, and methods of use thereof” (priority 2014, dated 2021)
